Where two headings read alike, the source gives them in different places.
Experiment: Pharmacokinetics in dogs (plasma concentration by HPLC)
Type: in vivo, dog (beagle)
Conditions: for AUC(0-inf): read-out: AUCO- (to infinite time); for concentration at 0.5 h / concentration at 1 h / concentration at 2 h / concentration at 4 h / concentration at 7 h / Cmax / AUC(0-t) at 4 h: one dog (Dog 1); for concentration at 0.5 h / concentration at 1 h / concentration at 2 h / concentration at 4 h / concentration at 7 h: heading: Plasma concentration; for AUC(0-t) at 4 h: read-out: AUC0-4
Protocol: Since dogs are used in toxicology studies of antiasthma compounds, this species is chosen for pharmacokinetic evaluations. Use of the dog permits the pharmacokinetic comparison of 2 or more compounds in the same test animal, an evaluation which could not be conveniently performed in a smaller species. For each test compound, normal dogs are given a dose of 2.0 mg/kg/day for 5 consecutive days. There is a washout period of 1 month between the study of each of the test compounds in the same four dogs. Each test compound is administered as a solution of 5 mg/ml in either 0.05 or 0.1N HCl which is dispensed into a gelatin capsule immediately prior to dosage.
Heparinized blood samples are obtained from each animal on the first, third and fifth day of dosage at 0.5, 1.0, 2.0, 4.0, 7.0, 12.0 and 24.0 hours after the dose. The samples are centrifuged immediately to obtain plasma which is frozen until analyzed.
Analysis of plasma is performed using High Performance Liquid Chromatography (HPLC). The analytical procedure is essentially identical for each compound. The internal standard used for N-[3-[2-(1H-imidazol-1-yl)ethoxy]phenyl]-4-(2-thienyl)2-pyrimidinamine is 2-chloro-11-(4-methyl-1-piperazinyl)dibenz[b,f][1,4]oxazepine succinate, while for 2-methyl-N^4 -[4-(4-pyridinyl)-2-pyrimidinyl]-1,4-benzenediamine dihydrochloride and N-[4-[2-(diethylamino)ethoxy]phenyl]-4-(4-pyridinyl)-2-pyrimidnamine dihydrochloride the internal standard is 7-ethoxy-coumarin. In a typical procedure, a 0.4 ml volume of acetonitrile containing internal standard is added a 0.2 ml volume of serum. The sample is mixed by vortexing and centrifuged. The clear protein free supernatent fluid is decanted into a clean tube and evaporated to dryness. The dry residue is dissolved in 0.2 ml of HPLC mobile phase and 50 ul of this solution injected. Peaks corresponding to the test compound being measured and to the internal standard compound are quantitated by their absorption of ultraviolet light at 280 nm. Each set of analytical samples is accompanied by the analysis of a group of standard dog plasma samples prepared to contain amounts of the compound being measured which encompasses the concentration range of the samples.
Four normal beagle dogs weighing between 9.2 and 10.2 Kg are used in the study.

[1] = dog, plasma, po, 2 mg/kg/day, Dog 1, day 1, 2 mg/kg/day PO
[2] = dog, plasma, po, 2 mg/kg/day, Dog 1, day 3, 2 mg/kg/day PO
[3] = dog, plasma, po, 2 mg/kg/day, Dog 1, day 5, 2 mg/kg/day PO
[4] = dog, plasma, po, 2 mg/kg/day, day 1, 2 mg/kg/day PO
[5] = dog, plasma, po, 2 mg/kg/day, day 3, 2 mg/kg/day PO
[6] = dog, plasma, po, 2 mg/kg/day, day 5, 2 mg/kg/day PO

Question: Which Tmax [1] does the source give for `CCN(CC)CCOc1ccc(Nc2nccc(-c3ccncc3)n2)cc1.Cl.Cl` [Compound 3, N-[4-[2-(diethylamino)ethoxy]phenyl]-4-(4-pyridinyl)-2-pyrimidinamine dihydrochloride, reference compound] here?
Answer: 1 h

Question: What about the half-life [1] of the same molecule?
Answer: 1.77 h

Question: And the AUC(0-inf) [1]?
Answer: 374 ng·h/mL

Question: And the Tmax [2]?
Answer: 1 h

Question: What about the half-life [2] of the same molecule?
Answer: 1.25 h

Question: What about the AUC(0-inf) [2] of the same molecule?
Answer: 423 ng·h/mL

Question: What about the Tmax [3] of the same molecule?
Answer: 1 h

Question: And the half-life [3]?
Answer: 2.16 h

Question: What about the AUC(0-inf) [3] of the same molecule?
Answer: 392 ng·h/mL

Question: And the concentration at 0.5 h (dog, plasma, po, 2 mg/kg/day, day 1, 0.5 h, 2 mg/kg/day PO)?
Answer: 30 ng/mL

Question: What about the concentration at 1 h (dog, plasma, po, 2 mg/kg/day, day 1, 1.0 h, 2 mg/kg/day PO) of the same molecule?
Answer: 125 ng/mL

Question: And the concentration at 2 h (dog, plasma, po, 2 mg/kg/day, day 1, 2.0 h, 2 mg/kg/day PO)?
Answer: 102 ng/mL

Question: And the concentration at 4 h (dog, plasma, po, 2 mg/kg/day, day 1, 4.0 h, 2 mg/kg/day PO)?
Answer: 40 ng/mL

Question: And the concentration at 7 h (dog, plasma, po, 2 mg/kg/day, day 1, 7.0 h, 2 mg/kg/day PO)?
Answer: < 30 ng/mL

Question: What about the Cmax [4] of the same molecule?
Answer: 125 ng/mL

Question: And the AUC(0-t) at 4 h [4]?
Answer: 302 ng·h/mL

Question: What about the concentration at 0.5 h (dog, plasma, po, 2 mg/kg/day, day 3, 0.5 h, 2 mg/kg/day PO) of the same molecule?
Answer: 124 ng/mL

Question: And the concentration at 1 h (dog, plasma, po, 2 mg/kg/day, day 3, 1.0 h, 2 mg/kg/day PO)?
Answer: 192 ng/mL

Question: And the concentration at 2 h (dog, plasma, po, 2 mg/kg/day, day 3, 2.0 h, 2 mg/kg/day PO)?
Answer: 81 ng/mL

Question: And the concentration at 4 h (dog, plasma, po, 2 mg/kg/day, day 3, 4.0 h, 2 mg/kg/day PO)?
Answer: 34 ng/mL

Question: What about the concentration at 7 h (dog, plasma, po, 2 mg/kg/day, day 3, 7.0 h, 2 mg/kg/day PO) of the same molecule?
Answer: < 30 ng/mL

Question: And the Cmax [5]?
Answer: 192 ng/mL

Question: And the AUC(0-t) at 4 h [5]?
Answer: 362 ng·h/mL

Question: And the concentration at 0.5 h (dog, plasma, po, 2 mg/kg/day, day 5, 0.5 h, 2 mg/kg/day PO)?
Answer: < 30 ng/mL

Question: And the concentration at 1 h (dog, plasma, po, 2 mg/kg/day, day 5, 1.0 h, 2 mg/kg/day PO)?
Answer: 153 ng/mL

Question: And the concentration at 2 h (dog, plasma, po, 2 mg/kg/day, day 5, 2.0 h, 2 mg/kg/day PO)?
Answer: 82 ng/mL

Question: And the concentration at 4 h (dog, plasma, po, 2 mg/kg/day, day 5, 4.0 h, 2 mg/kg/day PO)?
Answer: 55 ng/mL

Question: And the concentration at 7 h (dog, plasma, po, 2 mg/kg/day, day 5, 7.0 h, 2 mg/kg/day PO)?
Answer: < 30 ng/mL

Question: What about the Cmax [6] of the same molecule?
Answer: 153 ng/mL

Question: What about the AUC(0-t) at 4 h [6] of the same molecule?
Answer: 293 ng·h/mL

Question: What about the k el (dog, plasma, po, 2 mg/kg/day, derived from mean of half-life values, read-out: elimination constant (converted)) of the same molecule?
Answer: 0.000155 s⁻¹

Question: And the “measurable concentrations in plasma (in words)” value (four dogs, 2 mg/kg/day PO)?
Answer: only one dog provided measurable concentrations of compound in the plasma
